Measurements as given in patent US12617797B2, “Substituted pyrazolo [1,5-a]pyrimidines having multimodal activity against pain” (ESTEVE PHARMACEUTICALS, S.A., priority 2020, dated 2026).

Tests used:
[1] = molecular target: Human α2δ-1 subunit of Cav2.2 calcium channel (Homo sapiens, UniProt P54289); experiment: Human α2δ-1 subunit of Cav2.2 calcium channel assay ([3H]-gabapentin binding); settings: binding to the α2δ-1 subunit of voltage-gated calcium channels expressed as Ki; + also covers inhibition between 1% and 50%
Method: Biological Activity Pharmacological Study Human α2δ-1 Subunit of Cav2.2 Calcium Channel Assay
Human α2δ-1 enriched membranes (2.5 μg) were incubated with 15 nM of radiolabeled [^3H]-Gabapentin in assay buffer containing Hepes-KOH 10 mM, pH 7.4. NSB (non specific binding) was measured by adding 10 μM pregabalin. The binding of the test compound was measured at either one concentration (% inhibition at 1 or 10 μM) or five different concentrations to determine affinity values (Ki). After 60 min incubation at 27° C., binding reaction was terminated by filtering through Multiscreen GF/C (Millipore) presoaked in 0.5% polyethyleneimine in Vacuum Manifold Station, followed by 3 washes with ice-cold filtration buffer containing 50 mM Tris-HCl, pH 7.4. Filter plates were dried at 60° C. for 1 h and 30 μL of scintillation cocktail were added to each well before radioactivity reading. Readings were performed in a Trilux 1450 Microbeta radioactive counter (Perkin Elmer).

Human σ1 receptor = molecular target: T1, Human σ1 receptor (Homo sapiens, UniProt Q99720); experiment: Human σ1 receptor radioligand assay ([3H](+)-pentazocine binding, transfected HEK-293 membranes); settings: binding to σ1 receptor expressed as Ki; + also covers inhibition between 1% and 50%; read-out: σ-1 binding
T1 construct: expressed in transfected cells; host or cells: HEK-293
Method: Human σ1 Receptor Radioligand Assay
Transfected HEK-293 membranes (7 μg) were incubated with 5 nM of [^3H](+)-pentazocine in assay buffer containing Tris-HCl 50 mM at pH 8. NBS (non-specific binding) was measured by adding 10 μM haloperidol. The binding of the test compound was measured at either one concentration (% inhibition at 1 or 10 μM) or five different concentrations to determine affinity values (Ki). Plates were incubated at 37° C. for 120 minutes. After the incubation period, the reaction mix was then transferred to MultiScreen HTS, FC plates (Millipore), filtered and plates were washed 3 times with ice-cold 10 mM Tris-HCL (pH7.4). Filters were dried and counted at approximately 40% efficiency in a MicroBeta scintillation counter (Perkin-Elmer) using EcoScint liquid scintillation cocktail.

T1 sequence (Q99720 whole entry): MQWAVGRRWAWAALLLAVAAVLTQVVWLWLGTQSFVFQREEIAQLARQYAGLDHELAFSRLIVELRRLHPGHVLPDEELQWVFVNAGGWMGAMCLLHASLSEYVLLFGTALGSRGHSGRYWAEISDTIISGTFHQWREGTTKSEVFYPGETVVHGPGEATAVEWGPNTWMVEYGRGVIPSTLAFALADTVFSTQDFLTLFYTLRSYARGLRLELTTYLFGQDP
Sequence of Human α2δ-1 subunit of Cav2.2 calcium channel (P54289 25-1103): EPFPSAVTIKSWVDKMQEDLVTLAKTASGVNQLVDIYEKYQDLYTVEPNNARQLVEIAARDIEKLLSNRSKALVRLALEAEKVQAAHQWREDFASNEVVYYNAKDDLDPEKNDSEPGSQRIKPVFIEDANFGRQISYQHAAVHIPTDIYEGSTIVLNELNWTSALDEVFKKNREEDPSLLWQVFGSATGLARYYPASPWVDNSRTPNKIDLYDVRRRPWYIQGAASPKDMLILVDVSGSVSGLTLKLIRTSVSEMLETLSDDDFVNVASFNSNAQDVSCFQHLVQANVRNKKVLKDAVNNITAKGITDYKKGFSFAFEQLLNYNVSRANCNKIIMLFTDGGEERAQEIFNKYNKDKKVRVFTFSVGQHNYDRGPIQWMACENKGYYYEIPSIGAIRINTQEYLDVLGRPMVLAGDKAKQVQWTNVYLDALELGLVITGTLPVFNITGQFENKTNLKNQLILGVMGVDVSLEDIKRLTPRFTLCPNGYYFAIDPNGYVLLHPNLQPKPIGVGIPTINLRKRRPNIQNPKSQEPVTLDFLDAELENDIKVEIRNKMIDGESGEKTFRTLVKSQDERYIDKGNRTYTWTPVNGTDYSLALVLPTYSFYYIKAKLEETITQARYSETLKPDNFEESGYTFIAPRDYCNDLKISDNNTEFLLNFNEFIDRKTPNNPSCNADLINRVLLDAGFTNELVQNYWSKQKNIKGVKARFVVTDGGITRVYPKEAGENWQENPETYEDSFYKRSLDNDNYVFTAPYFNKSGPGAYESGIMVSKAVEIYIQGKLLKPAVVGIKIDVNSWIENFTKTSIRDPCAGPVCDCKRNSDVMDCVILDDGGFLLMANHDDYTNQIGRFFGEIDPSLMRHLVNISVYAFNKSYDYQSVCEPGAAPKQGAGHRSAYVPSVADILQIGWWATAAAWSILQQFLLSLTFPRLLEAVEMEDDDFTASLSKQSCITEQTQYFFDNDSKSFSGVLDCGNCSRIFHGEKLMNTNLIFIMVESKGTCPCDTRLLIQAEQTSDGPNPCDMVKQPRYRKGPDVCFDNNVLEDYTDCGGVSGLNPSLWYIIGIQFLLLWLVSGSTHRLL

| SMILES | Ki [1] [nM] | Ki (Human σ1 receptor) [nM] |
| --- | --- | --- |
| CCCCN1CCCC(c2ccnc3cc(C)nn23)C1 (centres unmarked) [Example 64, 7-(1-Butylpiperidin-3-yl)-2-methylpyrazolo[1,5-a]pyrimidine] | > 5000 | < 500 |
| Cc1cc2nccc(C3CCCN(Cc4c(F)cccc4F)C3)n2n1 (centres unmarked) [Example 65, 7-(1-(2,6-Difluorobenzyl)piperidin-3-yl)-2-methylpyrazolo[1,5-a]pyrimidine] | 500 to 5000 | > 1000 |
| Cc1cc2nccc(C3CCCN(Cc4ccccn4)C3)n2n1 (centres unmarked) [Example 66, 2-Methyl-7-(1-(pyridin-2-ylmethyl)piperidin-3-yl)pyrazolo[1,5-a]pyrimidine] | > 5000 | > 1000 |
| Cc1cc2nccc(C3CCCN(CCc4ccccc4)C3)n2n1 (centres unmarked) [Example 67, 2-Methyl-7-(1-phenethylpiperidin-3-yl)pyrazolo[1,5-a]pyrimidine] | > 5000 | > 1000 |
| Cc1cc2nccc(C3CCCN(Cc4cccc(O)c4)C3)n2n1 (centres unmarked) [Example 68, 3-((3-(2-Methylpyrazolo[1,5-a]pyrimidin-7-yl)piperidin-1-yl)methyl)phenol] | > 5000 | > 1000 |
| CCN1CCCC(c2ccnc3c(-c4ccncc4)c(C)nn23)C1 (centres unmarked) [Example 69, 7-(1-Ethylpiperidin-3-yl)-2-methyl-3-(pyridin-4-yl)pyrazolo[1,5-a]pyrimidine] | > 5000 | > 1000 |
| CCCN1CCCC(c2ccnc3c(-c4ccncc4)c(C)nn23)C1 (centres unmarked) [Example 70, 2-Methyl-7-(1-propylpiperidin-3-yl)-3-(pyridin-4-yl)pyrazolo[1,5-a]pyrimidine] | > 5000 | > 1000 |
| Cc1nn2c(C3CCCN(CC(C)C)C3)ccnc2c1-c1ccncc1 (centres unmarked) [Example 71, 7-(1-Isobutylpiperidin-3-yl)-2-methyl-3-(pyridin-4-yl)pyrazolo[1,5-a]pyrimidine] | > 5000 | > 1000 |
| Cc1nn2c(C3CCCN(Cc4ccccn4)C3)ccnc2c1-c1ccncc1 (centres unmarked) [Example 72, 2-Methyl-7-(1-(pyridin-2-ylmethyl)piperidin-3-yl)-3-(pyridin-4-yl)pyrazolo[1,5-a]pyrimidine] | 500 to 5000 | > 1000 |
| Cc1cnc2c(-c3ccncc3)cnn2c1C1CCCN(CCc2ccccc2)C1 (centres unmarked) [Example 73, 6-Methyl-7-(1-phenethylpiperidin-3-yl)-3-(pyridin-4-yl)pyrazolo[1,5-a]pyrimidine] | > 5000 | < 500 |
| Cc1cnc2c(-c3ccncc3)cnn2c1C1CCCN(Cc2ccccn2)C1 (centres unmarked) [Example 74, 6-Methyl-7-(1-(pyridin-2-ylmethyl)piperidin-3-yl)-3-(pyridin-4-yl)pyrazolo[1,5-a]pyrimidine] | 500 to 5000 | > 1000 |
| Cc1ccccc1CN1CCCC(c2ccnc3c(-c4ccncc4)c(C)nn23)C1 (centres unmarked) [Example 75, 2-Methyl-7-(1-(2-methylbenzyl)piperidin-3-yl)-3-(pyridin-4-yl)pyrazolo[1,5-a]pyrimidine] | 500 to 5000 | > 1000 |
| Cc1ccc(CN2CCCC(c3ccnc4c(-c5ccncc5)c(C)nn34)C2)cc1 (centres unmarked) [Example 76, 2-Methyl-7-(1-(4-methylbenzyl)piperidin-3-yl)-3-(pyridin-4-yl)pyrazolo[1,5-a]pyrimidine] | 500 to 5000 | 500 to 1000 |
| Cc1cccc(CN2CCCC(c3ccnc4c(-c5ccncc5)c(C)nn34)C2)c1 (centres unmarked) [Example 77, 2-Methyl-7-(1-(3-methylbenzyl)piperidin-3-yl)-3-(pyridin-4-yl)pyrazolo[1,5-a]pyrimidine] | > 5000 | > 1000 |
| c1ccc(CN2CCCC(c3ccnc4cc(N5CCCC5)nn34)C2)cc1 (centres unmarked) [Example 78, 7-(1-Benzylpiperidin-3-yl)-2-(pyrrolidin-1-yl)pyrazolo[1,5-a]pyrimidine] | > 5000 | 500 to 1000 |
| CN(CCO)c1cc2nccc(C3CCCN(Cc4ccccc4)C3)n2n1 (centres unmarked) [Example 79, 2-((7-(1-Benzylpiperidin-3-yl)pyrazolo[1,5-a]pyrimidin-2-yl)(methyl)amino)ethanol] | > 5000 | > 1000 |
| CN(CCN)c1cc2nccc(C3CCCN(Cc4ccccc4)C3)n2n1 (centres unmarked) [Example 80, N^1-(7-(1-Benzylpiperidin-3-yl)pyrazolo[1,5-a]pyrimidin-2-yl)-N^1-methylethane-1,2-diamine] | 500 to 5000 | > 1000 |

| SMILES | Ki [1] [nM] | Ki (Human σ1 receptor) [nM] |
| --- | --- | --- |
| CNCCN(C)c1cc2nccc(C3CCCN(Cc4ccccc4)C3)n2n1 (centres unmarked) [Example 81, N^1-(7-(1-Benzylpiperidin-3-yl)pyrazolo[1,5-a]pyrimidin-2-yl)-N^1,N^2-dimethylethane-1,2-diamine] | 500 to 5000 | > 1000 |
| CN(c1cc2nccc(C3CCCN(Cc4ccccc4)C3)n2n1)C1CCNCC1 (centres unmarked) [Example 82, 7-(1-Benzylpiperidin-3-yl)-N-methyl-N-(piperidin-4-yl)pyrazolo[1,5-a]pyrimidin-2-amine] | 500 to 5000 | > 1000 |
| CNCCNc1cc2nccc(C3CCCN(Cc4ccccc4)C3)n2n1 (centres unmarked) [Example 83, N^1-(7-(1-Benzylpiperidin-3-yl)pyrazolo[1,5-a]pyrimidin-2-yl)-N^2-methylethane-1,2-diamine] | 500 to 5000 | > 1000 |
| CN[C@@H]1CCN(c2cc3nccc([C@@H]4CCCN(Cc5ccccc5)C4)n3n2)C1 [Example 84, (R)-1-(7-((R)-1-Benzylpiperidin-3-yl)pyrazolo[1,5-a]pyrimidin-2-yl)-N-methylpyrrolidin-3-amine] | 500 to 5000 | > 1000 |
| CN[C@H]1CCN(c2cc3nccc([C@H]4CCCN(Cc5ccccc5)C4)n3n2)C1 [Example 85, (S)-1-(7-((S)-1-Benzylpiperidin-3-yl)pyrazolo[1,5-a]pyrimidin-2-yl)-N-methylpyrrolidin-3-amine] | > 5000 | > 1000 |
| CN[C@H]1CCN(c2cc3nccc([C@@H]4CCCN(Cc5ccccc5)C4)n3n2)C1 [Example 86, (S)-1-(7-((R)-1-Benzylpiperidin-3-yl)pyrazolo[1,5-a]pyrimidin-2-yl)-N-methylpyrrolidin-3-amine] | 500 to 5000 | > 1000 |
| CN[C@@H]1CCN(c2cc3nccc([C@H]4CCCN(Cc5ccccc5)C4)n3n2)C1 [Example 87, (R)-1-(7-((S)-1-Benzylpiperidin-3-yl)pyrazolo[1,5-a]pyrimidin-2-yl)-N-methylpyrrolidin-3-amine] | 500 to 5000 | > 1000 |
| c1ccc(CN2CCCC(c3ccnc4c(N5CCCC5)cnn34)C2)cc1 (centres unmarked) [Example 88, 7-(1-Benzylpiperidin-3-yl)-3-(pyrrolidin-1-yl)pyrazolo[1,5-a]pyrimidine] | > 5000 | 500 to 1000 |
| Cc1nn2c(C3CCCN(Cc4ccccc4)C3)ccnc2c1N1CCCC1 (centres unmarked) [Example 89, 7-(1-Benzylpiperidin-3-yl)-2-methyl-3-(pyrrolidin-1-yl)pyrazolo[1,5-a]pyrimidine] | 500 to 5000 | 500 to 1000 |
| Cc1nn2c(C3CCCN(Cc4ccccc4)C3)ccnc2c1N (centres unmarked) [Example 90, 7-(1-Benzylpiperidin-3-yl)-2-methylpyrazolo[1,5-a]pyrimidin-3-amine] | > 5000 | > 1000 |
| N#Cc1cc2nccc(C3CCCN(Cc4ccccc4)C3)n2n1 (centres unmarked) [Example 91, 7-(1-Benzylpiperidin-3-yl)pyrazolo[1,5-a]pyrimidine-2-carbonitrile] | 500 to 5000 | > 1000 |
| CN(C)Cc1cc2nccc(C3CCCN(Cc4ccccc4)C3)n2n1 (centres unmarked) [Example 92, 1-(7-(1-Benzylpiperidin-3-yl)pyrazolo[1,5-a]pyrimidin-2-yl)-N,N-dimethylmethanamine] | 500 to 5000 | > 1000 |
| CNCc1cc2nccc(C3CCCN(Cc4ccccc4)C3)n2n1 (centres unmarked) [Example 93, 1-(7-(1-Benzylpiperidin-3-yl)pyrazolo[1,5-a]pyrimidin-2-yl)-N-methylmethanamine] | 500 to 5000 | > 1000 |
| c1ccc(CNCc2cc3nccc(C4CCCN(Cc5ccccc5)C4)n3n2)cc1 (centres unmarked) [Example 94, N-Benzyl-1-(7-(1-benzylpiperidin-3-yl)pyrazolo[1,5-a]pyrimidin-2-yl)methanamine] | 500 to 5000 | > 1000 |
| Cc1nn2c(C3CCCN(Cc4ccccc4)C3)ccnc2c1CO (centres unmarked) [Example 95, (7-(1-Benzylpiperidin-3-yl)-2-methylpyrazolo[1,5-a]pyrimidin-3-yl)methanol] | > 5000 | > 1000 |
| CNCc1c(C)nn2c(C3CCCN(Cc4ccccc4)C3)ccnc12 (centres unmarked) [Example 96, 1-(7-(1-Benzylpiperidin-3-yl)-2-methylpyrazolo[1,5-a]pyrimidin-3-yl)-N-methylmethanamine] | 500 to 5000 | > 1000 |
| Cc1nn2c(C3CCCN(Cc4ccccc4)C3)ccnc2c1CNCCc1ccccc1 (centres unmarked) [Example 97, N-((7-(1-Benzylpiperidin-3-yl)-2-methylpyrazolo[1,5-a]pyrimidin-3-yl)methyl)-2-phenylethanamine] | 500 to 5000 | < 500 |
